# Reference: patent publication US8486991B2, “Enantiomerically pure phosphoindoles as HIV inhibitors” (Idenix Pharmaceuticals, Inc., priority 2006, dated 2013)
# Like-named read-outs stand apart in the source and are kept apart here.
# Experiments:
# in vitro = assay: in vitro
# Method: Cell viability was determined via MTT staining.
# [1] = Cellular cytotoxicity, 4 days, six HIV-1 host cell lines (ranges); assay type: cell-based; conditions: human, read-out: Mean CC50 Range
# Method: (§3) Cell viability was measured by standard MTT or MTS staining.
# HIV-1 NL4-3 K103N virus = assay: microbe, parasite or virus in culture; assay type: cell-based; conditions: for EC50: Human immunodeficiency virus 1, NL43, MT4, read-out: Average EC50 Values ± Standard Deviation, K103N; for Fold Change, K103N: Table 11, NL4-3
# HIV-1 W.T. (BH10) virus = assay: PBMC cell assay, W.T. (BH10); assay type: cell-based
# [2] = system: HIV-1 IIIB K103R/V179D/P225H triple mutant virus; assay: microbe, parasite or virus in culture; assay type: cell-based; conditions: for EC50: Human immunodeficiency virus 1, IIIB; for Fold Change, K103R/V179D/P225H: Table 16, IIIB
# Method: (§1) The test articles were next profiled against a panel of HIV-1 IIIB laboratory cultivated mutants as summarized in the text below. Antiviral efficacy was determined via a CPE assay with an MTS read-out for cell viability.
# HIV-1 IIIB w.t. virus = assay: microbe, parasite or virus in culture; assay type: cell-based; conditions: for Fold Change, W.T.: Table 16
# Method: as §1
# [3] = Cellular cytotoxicity, 4 days, MTS, MOLT-4; assay type: cell-based; conditions: human, Table 21, read-out: Average CC50 Values ± Standard Deviation, MOLT-4
# Method: as §3
# [4] = Cellular cytotoxicity, 4 days, MTS, H9; assay type: cell-based; conditions: human, Table 21, read-out: Average CC50 Values ± Standard Deviation, H9
# Method: as §3
# [5] = system: 9 different HIV-1 subtypes (A, B, C, D, F1, G, H, AE, AG), 18 viruses; assay: PhenoSense testing, HIV-1 subtype panel; assay type: cell-based; conditions: Human immunodeficiency virus 1, read-out: potency range, panel of 9 different HIV-1 subtypes
# Source text: The activities of the test and control compounds were next tested against a subtype panel which covers all major HIV-1 subtypes or clades (A, B, C, D, F1, G, H, AE and AG). This panel was part of a 64 virus panel selected from the large library of clinical isolates Monogram BioSciences (formerly ViroLogics). Each of the subtypes in the panel was represented by 2 distinct viruses which share many sequence similarities, but also some key differences and therefore could respond differently to one or more of the drugs included in this study.
# HIV-1 IIIB in H9 cells = assay: Drug susceptibility assay, IIIB in H9 cells; assay type: cell-based; conditions: Human immunodeficiency virus 1, IIIB
# Source text: (§2) The virus and host-cell dependency of Compound I, Compound III and control drugs was further examined in drug susceptibility assays performed across 3 different subtype B wild-type HIV-1 strains and 5 different cell lines.
# HIV-1 W.T. (NL4-3) virus = assay: PBMC cell assay, W.T. (NL4-3); assay type: cell-based
# [6] = Longer term cytotoxicity, 12 days, MTS, HuH7; conditions: human
# Method: as §3
# (§4) Cells were repeatedly treated with a range of drug concentrations (0.005 to 100 μM) for 9 (HeLa) or 12 days (HuH7, HepG2).
# [7] = Cellular cytotoxicity, 4 days, MTS, MT-4; conditions: human, Average CC50 Values ± Standard Deviation, MT-4, Table 21, 4 days, MTS
# Method: Following drug exposure for 4 days, cell viability was measured by MTS staining and CC50 values were determined. Drug concentrations ranged from 0.005 μM to 100 μM.
# The preceding data, allows us to calculate selectivity index (SI) values, based on the ratio of CC50 to EC50 in MT-4 cells (the standard assay used in this work).
# [8] = Cellular cytotoxicity, 4 days, MTS, MT-2; assay type: cell-based; conditions: human, Table 21, read-out: Average CC50 Values ± Standard Deviation, MT-2
# Method: as §3
# [9] = system: HIV-1 IIIB in MOLT-4 cells; assay: Drug susceptibility assay, IIIB in MOLT-4 cells; assay type: cell-based; conditions: Human immunodeficiency virus 1, IIIB
# Source text: as §2
# [10] = Longer term cytotoxicity, 9 days, MTS, HeLa; conditions: human
# Method: as §3, §4
# HIV-1 IIIB in U937 cells = assay: Drug susceptibility assay, IIIB in U937 cells; assay type: cell-based; conditions: Human immunodeficiency virus 1, IIIB
# Source text: as §2
# HIV-1 NL4-3 w.t. virus = assay: microbe, parasite or virus in culture; assay type: cell-based; conditions: for Fold Change, W.T.: Table 11, NL4-3
# HIV-1 BH10 in U937 cells = assay: Drug susceptibility assay, BH10 in U937 cells; assay type: cell-based
# Source text: as §2
# [11] = molecular target: site-directed mutant HIV-1 RT enzymes; assay: HIV-1 RT enzyme assay, whole panel (ranges); assay type: biochemical; conditions: for IC50: Table 3, range over W.T. and 7 mutant enzymes; for Mean Activity Range (fold-resistance): Table 4, range of fold changes over the panel
# Source text: In Vitro Antiviral Activity Against Additional Mutant HIV RT Enzymes
# The studies are summarized in the text that follows.
# [12] = Human immunodeficiency virus 1, PBMC, read-out: Average EC50 Values ± Standard Deviation, W.T. (BH10)
# [13] = Human immunodeficiency virus 1, PBMC, read-out: mean EC50, BH-10 strain in human PBMC
# [14] = MT4, read-out: Average EC50 Values ± Standard Deviation, K103R/V179D/P225H
# [15] = MT4, read-out: EC50, K103R/V179D/P225H triple mutant virus
# [16] = Human immunodeficiency virus 1, MT4, Table 15, IIIB, CPE, read-out: Average EC50 Values ± Standard Deviation, W.T.
# [17] = Human immunodeficiency virus 1, NL43, PBMC, read-out: Average EC50 Values ± Standard Deviation, W.T. (NL4-3)
# [18] = Human immunodeficiency virus 1, NL43, PBMC, read-out: mean EC50, NL4-3 strain in human PBMC
# [19] = Human immunodeficiency virus 1, NL43, MT4, read-out: Average EC50 Values ± Standard Deviation, W.T.
# [20] = Human immunodeficiency virus 1, NL43, MT4, read-out: Average EC50 Values ± Standard Deviation, host MT-4, virus NL4-3
# [21] = MOLT-4 cells (T lymphoblastic leukemia cell line)
# [22] = H9 cells (lymphoblastic T cells)
# [23] = H9, Table 17, read-out: Average EC50 Values ± Standard Deviation, host H9, virus IIIB
# [24] = MOLT-4, Table 17, read-out: Average EC50 Values ± Standard Deviation, host MOLT-4, virus IIIB
# [25] = U-937, Table 17, read-out: Average EC50 Values ± Standard Deviation, host U937, virus IIIB
# [26] = Human immunodeficiency virus 1, U-937, Table 17, read-out: Average EC50 Values ± Standard Deviation, host U937, virus BH10
Structure (SMILES),CC50 at 3 days (in vitro) [nM],CC50 at 4 days [1] [nM],EC50 (HIV-1 NL4-3 K103N virus) [nM],"Fold Change, K103N (HIV-1 NL4-3 K103N virus) [fold]",EC50 (HIV-1 W.T. (BH10) virus; [12]) [nM],EC50 (HIV-1 W.T. (BH10) virus; [13]) [nM],"EC50 [2, 14] [nM]","EC50 [2, 15] [nM]","Fold Change, K103R/V179D/P225H [2] [fold]",EC50 (HIV-1 IIIB w.t. virus; [16]) [nM],"Fold Change, W.T. (HIV-1 IIIB w.t. virus; IIIB) [fold]",EC50 [5] [nM],EC50 (HIV-1 W.T. (NL4-3) virus; [17]) [nM],EC50 (HIV-1 W.T. (NL4-3) virus; [18]) [nM],EC50 (HIV-1 NL4-3 w.t. virus; [19]) [nM],EC50 (HIV-1 NL4-3 w.t. virus; [20]) [nM],"Fold Change, W.T. (HIV-1 NL4-3 w.t. virus) [fold]",IC50 [11] [nM],Mean Activity Range (fold-resistance) [11] [µM],"CC50 at 4 days [3, 21] [nM]",also measured
"CO[P@](=O)(c1cc(C)cc(/C=C/C#N)c1)c1c(C(N)=O)[nH]c2ccc(Cl)c(F)c12 [Compound I, (2-Carbamoyl-5-chloro-4-fluoro-1H-indol-3-yl)-[3-((E)-2-cyano-vinyl)-5-methyl-phenyl]-(R)-phosphinic acid methyl ester]",52600,16600 to 32900,1.4 ± 0.4,0.7 ± 0.2,0.4 ± 0.1,0.4,10 ± 1.5,10,11.1±4.1,1 ± 0.4,1,0.25 to 3.2,1.5 ± 0.7,1.5,2 ± 0.1,2 ± 0.1,1,160 to 4670,0.5 to 15.5,,"Fold Change, K103R/V179D/P225H ([2]; listed as Cmpd. I): 11.1 ± 4.1 fold; CC50 at 4 days [3]: 16600 ± 400 nM; CC50 at 4 days [4]: 20000 ± 1600 nM; EC50 (HIV-1 IIIB in H9 cells; H9, read-out: Average EC50 Values ± Standard Deviation, host H9, virus IIIB): 0.6 ± 0.1 nM; CC50 at 12 days [6]: 23500 ± 1610 nM; CC50 at 4 days [7]: 27000 nM; CC50 at 4 days [8]: 23500 ± 1000 nM; EC50 ([9]; MOLT-4, read-out: Average EC50 Values ± Standard Deviation, host MOLT-4, virus IIIB): 0.7 ± 0.1 nM; CC50 at 9 days [10]: 27900 ± 1140 nM; EC50 (HIV-1 IIIB in U937 cells; U-937, read-out: Average EC50 Values ± Standard Deviation, host U937, virus IIIB): 0.5 ± 0.1 nM; EC50 (HIV-1 BH10 in U937 cells; Human immunodeficiency virus 1, U-937, read-out: Average EC50 Values ± Standard Deviation, host U937, virus BH10): 0.6 ± 0.2 nM"
"CO[P@](=O)(c1cc(C)cc(/C=C/C#N)c1)c1c(C(N)=O)[nH]c2ccc(Cl)cc12 [Compound III, (2-Carbamoyl-5-chloro-1H-indol-3-yl)-[3-((E)-2-cyano-vinyl)-5-methyl-phenyl]-(R)-phosphinic acid methyl ester]",,14800 to 50000,1.5 ± 0.3,0.9 ± 0.2,0.4 ± 0.1,0.4,25 ± 6,21 to 25,53.5±12.8,0.5 ± 0.1,1,0.2 to 2.14,1.5 ± 0.5,1.5,1.7 ± 0.3,1.7 ± 0.3,1,130 to 2990,0.6 to 13.7,14800 ± 1000,"CC50 at 3 days (in vitro; human, stimulated primary blood mononuclear cells (PBMC)): 66900 nM; Fold Change, K103R/V179D/P225H ([2]; listed as Cmpd. III): 53.5 ± 12.8 fold; CC50 at 4 days [4, 22]: 31300 ± 5200 nM; EC50 (HIV-1 IIIB in H9 cells; [23]): 0.5 ± 0.2 nM; CC50 at 12 days ([6]; HuH7 liver cells): 31500 ± 3370 nM; CC50 at 4 days ([7]; MT-4 cells (leukemia T cells)): 18600 nM; CC50 at 4 days ([8]; MT-2 cells (leukemia T cells)): 25900 ± 2100 nM; EC50 [9, 24]: 0.6 ± 0.1 nM; CC50 at 9 days ([10]; HeLa epithelial cells): 29900 ± 2090 nM; EC50 (HIV-1 IIIB in U937 cells; [25]): 0.5 ± 0.1 nM; EC50 (HIV-1 BH10 in U937 cells; [26]): 1.3 ± 0.6 nM"
"O=C1Nc2ccc(Cl)cc2C(C#CC2CC2)(C(F)(F)F)O1 (stereo not shown) [EFV, 6-chloro-4-cyclopropylethynyl-4-trifluoromethyl-1,4-dihydro-2H-3,1-benzoxazin-2-one, reference compound]",70900 ± 7600,23200 to 51000,61.2 ± 33.8,,,,> 1000,> 1000,,,,0.4 to 3.1,,,2.3 ± 0.2,2.3 ± 0.2,,≥ 20,,41700 ± 3400,"EC50 (HIV-1 W.T. (BH10) virus; Human immunodeficiency virus 1, Table 14, PBMC, read-out: Average EC50 Values ± Standard Deviation, W.T. (BH10)): 0.9 ± 0.3 nM; EC50 (HIV-1 IIIB w.t. virus; Human immunodeficiency virus 1, IIIB, MT4, read-out: Average EC50 Values ± Standard Deviation, W.T.): 1.5 ± 0.6 nM; CC50 at 4 days [4, 22]: 50000 ± 9000 nM; EC50 (HIV-1 IIIB in H9 cells; [23]): 1.5 ± 0.6 nM; EC50 (HIV-1 W.T. (NL4-3) virus; Human immunodeficiency virus 1, NL43, Table 14, PBMC, read-out: Average EC50 Values ± Standard Deviation, W.T. (NL4-3)): 2.1 ± 0.7 nM; CC50 at 12 days ([6]; HuH7 liver cells): 75700 ± 12400 nM; CC50 at 4 days ([7]; MT-4 cells (leukemia T cells)): 44100 ± 18200 nM; CC50 at 4 days ([8]; MT-2 cells (leukemia T cells)): 24600 ± 4500 nM; EC50 [9, 24]: 0.9 ± 0.2 nM; CC50 at 9 days ([10]; HeLa epithelial cells): 48600 ± 2500 nM; EC50 (HIV-1 IIIB in U937 cells; [25]): 1.5 ± 0.8 nM; EC50 (HIV-1 BH10 in U937 cells; [26]): 1.9 ± 0.8 nM"
